Values quoted from earlier work in patent US11534622B2, “Non-invasive systems and methods for selective activation of photoreactive responses” (IMMUNOLIGHT, LLC, priority 2014, dated 2022).

Experiments:
[1] = clinical use
tumors = conditions: in vivo
[2] = orange juice, high UV exposure of 100 mJ/cm^2

## Oc1cccc(-c2c3nc(c(-c4cccc(O)c4)c4ccc([nH]4)c(-c4cccc(O)c4)c4nc(c(-c5cccc(O)c5)c5ccc2[nH]5)CC4)C=C3)c1 [Foscan, Tetra (m-hydroxyphenyl) chlorin]
[1]
  duration of skin photosensitivity: approximately 2 weeks

## CC(=O)[O-].CC(=O)[O-].CCc1c(CC)c2cc3nc(cnc4cc(OCCOCCOCCOC)c(OCCOCCOCCOC)cc4ncc4nc(cc1[n-]2)C(CCCO)=C4C)C(C)=C3CCCO.O.[Lu+3] [Lutetium texaphryin, Motexafin lutetium]
tumors
  selectivity for tumors compared to normal tissues: one of the greatest reported selectivities for tumors

## O=C1O[C@H]([C@@H](O)CO)C(O)=C1O [Vitamin C]
[2]
  degradation of Vitamin C: 17%
